The numbers were not newly measured in patent US20150258078A1 (priority 2014, published 2015), which cites them from elsewhere.

Where two headings read alike, the source gives them in different places.

The subject of data set [1] is male inbred BHE (IN-BHE) rats. The conditions noted are these: after the injection of 300 µg.
In data set [2] the test system is type 2 diabetic and nondiabetic subjects. The conditions noted are these: 61.4 micromol/day for 28 days; for VLDL, mean of absolute differences between 0 and 28 day treatment +/- S.E.M. / triacylglycerol, mean of absolute differences between 0 and 28 day treatment +/- S.E.M.: plasma.
The subject of data set [3] is patients with elevated cholesterol and triglycerides. The conditions noted are these: multiple clinical trials; daily intakes 600 to 1200 mg/day.

Take `O=C(O)CCCC[C@@H]1SC[C@@H]2NC(=O)N[C@@H]21` [Biotin]: in data set [1], the “plasma levels of lactate and pyruvate” value is “fell”. Moreover, in data set [2] (diabetic group), the “VLDL, mean of absolute differences between 0 and 28 day treatment +/- S.E.M.” value is given as −0.11+/−0.04; the “triacylglycerol, mean of absolute differences between 0 and 28 day treatment +/- S.E.M.” value is given as −0.55+/−0.2. Besides, in data set [2] (diabetic or nondiabetic subjects), the “cholesterol, glucose and insulin” value is recorded as “no significant effects”. In data set [2] (nondiabetic group), the “VLDL, mean of absolute differences between 0 and 28 day treatment +/- S.E.M.” value was −0.18+/−0.07; the “triacylglycerol, mean of absolute differences between 0 and 28 day treatment +/- S.E.M.” value was −0.92+/−0.36.

For Pantethine, in data set [3], the HDL cholesterol increased is on record as 9%, the total cholesterol decreased is 12% and the triglycerides decreased is given as 18%.
